# Results reported in patent publication US9289398B2, “Methods for the production of functional protein from DNA having a nonsense mutation and the treatment of disorders associated therewith” (PTC Therapeutics, Inc., priority 2006, dated 2016).
# Key:
# [1] = Body weight, CF Phase 2 study; assay type: in vivo, human
# Text: 3-[5-(2-Fluoro-phenyl)-[1,2,4]oxadiazol-3-yl]-benzoic acid was provided in a formulation described herein.
# Statistically significant results and positive trends for secondary endpoints were also observed. In particular, although the trials were not been powered to detect statistical significant changes in secondary endpoints, statistically significant improvements from study entry to the end of the higher-dose treatment cycle in the patients' mean FEV1, FVC and weight were observed.
# [2] = Muscle strength (myometry) and timed function tests, DMD Phase 2; assay type: in vivo, human; conditions: within the 28 days of treatment
# Description: Upper and lower extremity myometry are performed using a hand-held myometer following standardized procedures (Beenakker, 2001, Neuromuscul. Disord. 11(5):441-6; Hyde, 2001, Neuromuscul. Disord 11(2):165-70). It is recommended (depending on the subject's baseline functional status) that evaluated muscle groups include hip abductors, knee extensors, elbow flexors and extensors, and hand grip. Bilateral assessments can be done, and three measurements can be recorded from each muscle group on each side. These parameters are monitored prior to treatment, on the second to last day of treatment, and during a follow-up period after treatment. During the pre-treatment and treatment periods, the myometry procedures are performed prior to the muscle biopsy.
# Timed function tests include time taken to stand from a supine position, time taken to walk 10 meters, and time taken to climb 4 standard-sized stairs (Mendell, 1989, N. Engl. J. Med. 320(24):1592-7; Griggs, 1991, Arch. Neurol. 48(4):383-8). These parameters are monitored prior to treatment, on the second to last day of treatment, and during a follow-up period after treatment. During the pre-treatment and treatment periods, the timed function tests are performed prior to the muscle biopsy. […]
smiles,measurement,setting,value
"O=C(O)c1cccc(-c2noc(-c3ccccc3F)n2)c1 [3-[5-(2-fluoro-phenyl)-[1,2,4]oxadiazol-3-yl]-benzoic acid]","Weight, End of Higher Dose Treatment",[1]; study entry 58.3 kg,59.0 kg
same,"Weight, Change",[1]; study entry to end of higher dose treatment,0.7 kg
same,Changes in muscle strength and timed functions,[2],small and not significant
